Data: patent US20140031388A1, “AKT INACTIVATION BY TOCOPHERYL DERIVATIVES” (priority 2012, published 2014)

Key:
[1] = tested on: phosphorylation of Ser473 in Akt; assay: Western blot of Akt phosphorylation at Ser473; type: cell-based; settings: LNCaP and PC-3 cells, Thr308 not altered
Protocol: Cells were exposed to the test agents in 10-cm dishes for 24 hours and then collected by scraping. The cell pellets were washed once with PBS, and then lysed at 4° C. over 30 min of incubation in a sodium dodecyl sulfate (SDS) lysis buffer containing 1% SDS, 50 mM Tris HCl (pH 8.1), 10 mM EDTA and […] protease inhibitor cocktail (Sigma-Aldrich). The cell debris was pelleted by centrifugation for 20 min at 14,000×g, and 1 μl of each supernatant was used for determination of protein concentration using a colorimetric bicinchoninic assay (Pierce, Rockford, Ill.). The remaining sample was added to equal volume of 2×SDS-polyacrylamide gel electrophoresis sample loading buffer (62.5 mM Tris-HCl, pH 6.8, 4% SDS, 5% β-mercaptoethanol, 20% glycerol, 0.1% bromophenol blue), followed by incubation in boiling water for 5 min. Equivalent amounts of total protein were resolved in SDS-polyacrylamide gels, and then transferred to nitrocellulose membranes using a semidry transfer cell. The transblotted membrane was washed twice with Tris-buffered saline containing 0.1% Tween 20 (TBST). After blocking with TBST containing 5% nonfat milk for 40 min, the membrane was incubated with the appropriate primary antibody (1:1000) in TBST-1% nonfat milk at 4° C. overnight. The membrane was then washed three times with TBST for a total of 15 min, followed by incubation with goat anti-rabbit or anti-mouse IgG-horseradish peroxidase conjugates (1:2000) for 1 hour at room temperature and four washes with TBST for a total of 1 hour. The immunoblots were visualized by enhanced chemiluminescence (GE Healthcare Life Sciences).

[2] = tested on: LNCaP cells; assay: MTT viability assay, LNCaP; type: cell-based; settings: Homo sapiens, 1% FBS-containing or serum-free RPMI 1640 medium for 24 h
Protocol: The prostate cancer cell lines, LNCaP and PC-3, were purchased from American Type Culture Collection (Manassas, Va.) and maintained in RPMI 1640 medium containing 10% heat-inactivated fetal bovine serum at 37° C. in a humidified incubator containing 5% CO2. The LNCaP-abl cells were a generous gift from Dr. Qianben Wang (The Ohio State University). Normal prostate epithelial cells were purchased from Lonza (Walkersville, Md.) and were cultured in the vendor-recommended defined prostate epithelial cell growth medium. For experiments, LNCaP cells were plated on poly-D-lysine-coated culture flasks at a density of 12,000 cells per cm^2 surface area for 24 hours, followed by treatment with test agents in serum-free RPMI 1640 medium. The α- and γ-tocopherols were purchased from Sigma-Aldrich (St. Louis, Mo.). The tocopherol derivatives, α- and γ-VE5, were synthesized by the inventors.
LNCaP cells were plated into poly-D-lysine-coated 96-well plates and PC-3 and LNCaP-abl cells into uncoated plates at the density of 5,000 cells per well in the presence of 10% FBS. Normal prostate epithelial cells were plated into uncoated plates at a density of 8,000 cells per well. […] After 24 hours of treatment, cells were incubated with MTT [3-(4,5-dimethylthiazol-2-yl)-2,5-diphenyl-2H-tetrazolium bromide] (TCI America; 0.5 mg/ml, final concentration) for an additional 2 hours. The medium was then removed from each well and replaced with DMSO to dissolve the reduced MTT dye for subsequent colorimetric measurement of absorbance at 595 nm. Cell viabilities are calculated as percentages of that in the corresponding vehicle-treated control group.

[3] = tested on: PC-3-luc xenograft tumors; assay: PC-3-luc subcutaneous xenograft in athymic nude mice; type: in vivo; settings: 50 mg/kg daily intraperitoneal, 21 days
Protocol: (§1) Male athymic nude mice (Hsd:Athymic Nude-Foxn1^nu/nu, 5-7 weeks of age) were purchased from Harlan Laboratories and group-housed under conditions of constant photoperiod (12 hours light: 12 hours dark) with ad libitum access to sterilized food and water. Ectopic tumors were established in athymic nude mice by subcutaneous injection of 1×10^6 PC-3-luc or 2×10^6 LNCaP-abl cells in a total volume of 0.1 mL serum-free medium containing 50% Matrigel (BD Biosciences). The establishment and growth of tumors were monitored weekly by measurement with calipers (tumor volume=width^2×length×0.52) and bioluminescence (PC-3-luc) using the IVIS™ imaging system (Xenogen Corporation, Alameda, Calif.). For bioluminescent imaging, mice anesthetized with isoflurane were imaged at 15, 20 and 25 min after intraperitoneal administration of firefly luciferin (150 mg/kg; Caliper Life Sciences) to capture maximal luminescence. Data acquisition and analysis were achieved using the Living Image® software (Xenogen). […] Body weights and tumor burdens were measured weekly. At the study endpoint, mice were euthanized, and blood was collected by cardiac puncture from all mice and submitted to The Ohio State University Comparative Pathology and Mouse Phenotyping Shared Resource for determination of complete blood counts and serum chemistry.

[4] = Toxicologic evaluation in PC-3-luc tumor-bearing mice; type: in vivo
Protocol: as §1

[5] = tested on: PDK-1 membrane localization; assay: Immunofluorescence, membrane localization of PDK-1 at higher concentrations; type: cell-based; settings: 6 hours of exposure
Protocol: Cells were stained for endogenous PH domain-containing proteins (Akt, PHLPP, PDK-1, ILK, BTK) by incubation with specific antibodies (1:100), followed by incubation with the Alexa Fluor 555-conjugated goat anti-rabbit or Alexa Fluor 488-conjugated goat anti-mouse IgG (1:200) at room temperature for 2 hours. Both primary and secondary antibodies were diluted in incubation buffer containing 0.1% Triton X-100 and 0.2% bovine serum albumin in PBS. The cells were washed in PBS after each step and mounted using […] mounting medium supplemented with DAPI (Vector Laboratories Inc., Burlingame, Calif.). The slides were allowed to set for at least 4 hours before confocal images were acquired using a Zeiss LSM 510 inverted confocal laser scanning microscope operated with Zeiss LSM 510 software. Image analysis was performed using ImageJ (NIH) software.

[6] = target: VL2-deleted mutant of the PH domain of Akt (Homo sapiens, UniProt P31749); assay: Surface plasmon resonance binding, VL2-deleted Akt PH domain; settings: SPR
Sequence of VL2-deleted mutant of the PH domain of Akt (P31749 whole entry, looked up, stated change not applied, the tested form may be a part): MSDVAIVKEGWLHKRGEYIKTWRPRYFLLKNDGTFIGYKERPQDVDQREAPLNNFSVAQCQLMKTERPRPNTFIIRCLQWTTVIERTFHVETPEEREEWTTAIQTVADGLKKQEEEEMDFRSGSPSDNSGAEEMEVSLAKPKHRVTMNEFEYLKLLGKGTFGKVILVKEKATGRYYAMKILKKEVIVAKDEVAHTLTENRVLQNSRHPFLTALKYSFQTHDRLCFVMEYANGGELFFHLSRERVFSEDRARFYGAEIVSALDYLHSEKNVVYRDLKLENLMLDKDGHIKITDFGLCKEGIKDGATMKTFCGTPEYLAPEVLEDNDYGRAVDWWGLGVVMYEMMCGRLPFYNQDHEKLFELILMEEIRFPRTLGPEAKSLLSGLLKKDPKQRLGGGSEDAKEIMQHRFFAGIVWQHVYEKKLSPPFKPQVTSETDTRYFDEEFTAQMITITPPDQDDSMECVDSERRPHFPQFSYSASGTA
Protocol: Binding experiments were performed using a Biacore T100 system (GE Healthcare, Piscataway, N.J.). The GST-PH domain fusion proteins were immobilized on a CM5 S Sensorchip using Biacore's Amine Coupling Kit to a level of 17,000 response units. VE5 compounds and di-octanoyl PIP3 at concentrations ranging from 0.1 to 100 μM and 1 to 20 μm, respectively, were injected at a high flow rate (30 μL/min) over the biosensor surface for binding analyses. DMSO concentrations in all samples and running buffer were 1% (v/v) or less. Data were analyzed using Biacore T100 Evaluation Software.

[7] = tested on: LNCaP-abl xenograft tumors; assay: LNCaP-abl subcutaneous xenograft in athymic nude mice; type: in vivo
Protocol: as §1

[8] = 50 mg/kg daily intraperitoneal, 21 days
[9] = values within the normal ranges for mice

Structure (SMILES)	effect on phosphorylation of Akt at Ser473 [1]	IC50 [2] [µM]	PC-3-luc tumor growth relative to vehicle-treated controls (bioluminescence) ([3]; P<0.05)	intratumoral phosphorylation of Akt, MDM2 and IKKα ([3]; PC-3-luc tumors)	gross pathology findings at necropsy [4, 8]	change of mean body weight over the treatment period ([4]; 50 mg/kg daily intraperitoneal, 21 days, vehicle −0.2 grams) [grams]	change of mean body weight over the treatment period ([4]; 50 mg/kg daily intraperitoneal, 21 days, vehicle −0.7%) [%]	hematological findings relative to controls [4, 9]	serum chemistry findings [4, 9]	membrane-associated PDK-1, share of total immunofluorescence signal ([5]; 25 μM)	membrane-associated PDK-1, share of total immunofluorescence signal ([5]; 35 μM)	Kd [6] [µM]	IC50 ([2]; 24 h) [µM]	LNCaP-abl tumor growth relative to vehicle-treated controls [7, 8]	intratumoral phosphorylation of Akt at Ser473, MDM2 and IKKα ([7]; LNCaP-abl tumors, relative to vehicle-treated controls)
Cc1c(C)c2c(c(C)c1O)CC[C@@](C)(CCCC(C)C)O2 [α-VE5, (R)-2,5,7,8-tetramethyl-2-(4-methylpentyl)-chroman-6-ol]	parallel reduction	20	–	–	–	–	–	–	–	–	–	–	–	–	–
Cc1c(O)cc2c(c1C)O[C@](C)(CCCC(C)C)CC2 [γ-VE5, (R)-2,7,8-trimethyl-2-(4-methylpentyl)-chroman-6-ol]	parallel reduction	–	inhibited PC-3-luc tumor growth	suppressed phosphorylation of Akt at Ser^473 without disrupting that at Thr^308	abdominal adhesions and variable amounts of clear fluid within the abdomen	−0.7	−2.3	reductions in hematocrit, red blood cell numbers and hemoglobin concentration	increase in aspartate aminotransferase and a decrease in serum albumin concentrations	approximately 50%	greater than 90%	30 ± 4	12	significantly inhibited tumor growth	reduced phosphorylation
